Results reported in ChEMBL document CHEMBL5131537 (J Med Chem, 2022).

Key:
[1] = Cytotoxicity against human MT4 cells assessed as reduction in cell viability by MTT assay; assay type: toxicity, cell-based
[2] = target: Human immunodeficiency virus type 1 reverse transcriptase (Human immunodeficiency virus 1, UniProt Q72547)
Description: Inhibition of HIV-1 reverse transcriptase using oligo(dT)16 as primer measured after 40 mins by picogreen-dye based spectrofluorometric analysis

[3] = in vitro; settings: human, MT4 cells
Description: Selectivity index, ratio of CC50 for cytotoxicity against human MT4 cells to EC50 for antiviral activity against wild type HIV-1 IIIB infected in human MT4 cells

[4] = test system: Human immunodeficiency virus 1; assay: microbe, parasite or virus in culture; settings: Human immunodeficiency virus 1, IIIB, MT4
Description: Antiviral activity against wild type HIV-1 IIIB infected in human MT4 cells assessed as protection against virus-induced cytopathic effect by MTT assay

[5] = test system: Human immunodeficiency virus 1; assay: Antiviral activity against HIV-1 IIIB harboring reverse transcriptase […] mutant infected in human MT4 cells by MTT assay; assay type: functional, organism-based; settings: Human immunodeficiency virus 1, IIIB
[6] = test system: Human immunodeficiency virus 1; assay: Antiviral activity against HIV-1 IIIB harboring reverse transcriptase K103N mutant infected in human MT4 cells by MTT assay; assay type: functional, organism-based; settings: Human immunodeficiency virus 1, IIIB
[7] = test system: Human immunodeficiency virus 1; assay: Antiviral activity against HIV-1 IIIB harboring reverse transcriptase Y181C mutant infected in human MT4 cells by MTT assay; assay type: functional, organism-based; settings: Human immunodeficiency virus 1, IIIB
[8] = test system: Human immunodeficiency virus 1; assay: Antiviral activity against HIV-1 IIIB harboring reverse transcriptase E138K mutant infected in human MT4 cells by MTT assay; assay type: functional, organism-based; settings: Human immunodeficiency virus 1, IIIB
[9] = test system: Human immunodeficiency virus 1; assay: microbe, parasite or virus in culture; settings: Human immunodeficiency virus 1, IIIB, MT4; remark: listed apart in the source
Description: Antiviral activity against HIV-1 IIIB harboring reverse transcriptase Y188L mutant infected in human MT4 cells by MTT assay

[10] = Metabolic stability in human liver assessed as intrinsic clearance in microsomes at 1 uM measured up to 45 mins in presence of NADPH by LC-MS/MS analysis; assay type: ADME; settings: read-out: CLH
[11] = in vitro; settings: human
[12] = in vitro; settings: human; remark: listed apart in the source

Compound	CC50 [1] [µM]	IC50 [2] [µM]	selectivity ratio [3]	EC50 [4] [µM]	EC50 [5] [µM]	EC50 [6] [µM]	EC50 [7] [µM]	EC50 [8] [µM]	EC50 [9] [µM]	microsomal CLint at 1 µM [10] [µL/min/mg]	half-life at 0.75 h, 1 µM ([11]; liver microsomes) [min]	CLint scaled at 0.75 h, 1 µM ([12]; liver) [L/h/kg]	half-life at 0.75 h, 1 µM ([11]; microsomes) [min]	CLint scaled at 0.75 h, 1 µM [12] [L/h/kg]
Cc1cc(-c2ccc(C#N)c(F)c2)cc(C)c1Oc1cc(N)nc(Nc2ccc(C#N)cc2)n1	5	0.05	937	0.00533	–	–	–	–	–	–	–	–	–	–
Cc1cc(-c2ccccc2)cc(C)c1Oc1cc(N)nc(Nc2ccc(C#N)cc2)n1	25.6	0.045	2640	0.0097	–	–	–	–	–	–	–	–	–	–
Cc1cc(-c2ccccc2F)ccc1Oc1cc(N)nc(Nc2ccc(C#N)cc2)n1	29.5	0.045	2560	0.0115	–	–	–	–	–	–	–	–	–	–
Cc1cc(-c2ccccc2F)cc(C)c1Oc1cc(N)nc(Nc2ccc(C#N)cc2)n1	29.3	0.046	3060	0.0096	–	–	–	–	–	–	–	–	–	–
Cc1cc(-c2ccccc2C#N)ccc1Oc1cc(N)nc(Nc2ccc(C#N)cc2)n1	28.6	0.05	2900	0.00984	–	–	–	–	–	–	–	–	–	–
Cc1cc(-c2ccc(C#N)cc2)ccc1Oc1cc(N)nc(Nc2ccc(C#N)cc2)n1	10.4	0.029	5250	0.002	0.038	0.003	0.032	0.009	1.11	–	–	–	–	–
Cc1ccccc1-c1cc(C)c(Oc2cc(N)nc(Nc3ccc(C#N)cc3)n2)c(C)c1	25.6	0.121	726	0.0352	–	–	–	–	–	–	–	–	–	–
Cc1cc(-c2ccc(F)cc2)cc(C)c1Oc1cc(N)nc(Nc2ccc(C#N)cc2)n1	23.1	0.061	1700	0.0136	–	–	–	–	–	–	–	–	–	–
Cc1cc(-c2cccc(F)c2)ccc1Oc1cc(N)nc(Nc2ccc(C#N)cc2)n1	11.3	0.101	187	0.0606	–	–	–	–	–	–	–	–	–	–
Cc1cc(-c2ccc(C#N)c(C#N)c2)cc(C)c1Oc1cc(N)nc(Nc2ccc(C#N)cc2)n1	17.6	0.04	3090	0.00569	–	–	–	–	–	–	–	–	–	–
Cc1cc(-c2ccccc2Cl)cc(C)c1Oc1cc(N)nc(Nc2ccc(C#N)cc2)n1	25.1	0.1	882	0.0284	–	–	–	–	–	–	–	–	–	–
COc1cccc(-c2cc(C)c(Oc3cc(N)nc(Nc4ccc(C#N)cc4)n3)c(C)c2)c1	19.3	0.073	1980	0.0097	–	–	–	–	–	–	–	–	–	–
COc1cc2cc(C#N)ccc2c(OC)c1Oc1cc(N)nc(Nc2ccc(C#N)cc2)n1	19	–	3500	0.005	0.038	–	–	–	–	–	–	–	–	–
Cc1cc(-c2cccc(F)c2)cc(C)c1Oc1cc(N)nc(Nc2ccc(C#N)cc2)n1	24.7	0.052	1570	0.0158	–	–	–	–	–	–	–	–	–	–
Cc1cc(-c2ccc(C#N)c(F)c2)ccc1Oc1cc(N)nc(Nc2ccc(C#N)cc2)n1	6.6	0.039	1090	0.006	–	–	–	–	–	–	–	–	–	–
Cc1cc(-c2ccccc2)ccc1Oc1cc(N)nc(Nc2ccc(C#N)cc2)n1	20	0.039	1050	0.019	–	–	–	–	–	–	–	–	–	–
Cc1ccnc2c1NC(=O)c1cccnc1N2C1CC1 [NEVIRAPINE]	> 15	–	–	–	1.36	5.84	11.5	–	> 15	–	–	–	–	–

Compound	CC50 [1] [µM]	IC50 [2] [µM]	selectivity ratio [3]	EC50 [4] [µM]	EC50 [5] [µM]	EC50 [6] [µM]	EC50 [7] [µM]	EC50 [8] [µM]	EC50 [9] [µM]	microsomal CLint at 1 µM [10] [µL/min/mg]	half-life at 0.75 h, 1 µM ([11]; liver microsomes) [min]	CLint scaled at 0.75 h, 1 µM ([12]; liver) [L/h/kg]	half-life at 0.75 h, 1 µM ([11]; microsomes) [min]	CLint scaled at 0.75 h, 1 µM [12] [L/h/kg]
Cc1cc(-c2cccc(Cl)c2)cc(C)c1Oc1cc(N)nc(Nc2ccc(C#N)cc2)n1	22.3	0.085	588	0.038	–	–	–	–	–	–	–	–	–	–
COc1ccc(-c2cc(C)c(Oc3cc(N)nc(Nc4ccc(C#N)cc4)n3)c(C)c2)cc1	10.7	0.054	1390	0.0077	–	–	–	–	–	–	–	–	–	–
Cc1cc(Oc2cc(N)nc(Nc3ccc(C#N)cc3)n2)ccc1-c1ccc(C#N)cc1	34.3	0.026	15100	0.0023	0.071	0.01	0.033	0.012	1.42	36	38.5	0.0648	–	–
O=C1Nc2ccc(Cl)cc2[C@@](C#CC2CC2)(C(F)(F)F)O1 [EFAVIRENZ]	> 6.34	–	–	–	0.03	–	0.007	–	–	–	–	–	–	–
Cc1cc(-c2ccc(C#N)cc2)cc(C)c1Oc1cc(N)nc(Nc2ccc(C#N)cc2)n1	18.1	0.037	3870	0.0047	0.008	0.004	0.016	0.012	0.082	–	–	–	–	–
COc1cc(Oc2cc(N)nc(Nc3ccc(C#N)cc3)n2)ccc1-c1ccc(C#N)cc1	12.9	0.03	5590	0.0023	0.036	0.012	0.028	0.013	1.36	–	–	–	–	–
Cc1cccc(-c2cc(C)c(Oc3cc(N)nc(Nc4ccc(C#N)cc4)n3)c(C)c2)c1	27.6	0.152	404	0.0683	–	–	–	–	–	–	–	–	–	–
Cc1cc(-c2ccccc2C#N)cc(C)c1Oc1cc(N)nc(Nc2ccc(C#N)cc2)n1	25.4	0.04	3570	0.00712	–	–	–	–	–	–	–	–	–	–
Cc1cc(-c2ccc(C#N)c(C#N)c2)ccc1Oc1cc(N)nc(Nc2ccc(C#N)cc2)n1	76.7	0.09	7040	0.0109	–	–	–	–	–	–	–	–	–	–
Cc1cc(C#N)cc(C)c1Oc1nc(Nc2ccc(C#N)cc2)nc(N)c1Br [ETRAVIRINE]	> 4.6	–	–	0.0029	0.006	0.002	–	0.006	0.018	–	–	–	–	–
COc1ccccc1-c1cc(C)c(Oc2cc(N)nc(Nc3ccc(C#N)cc3)n2)c(C)c1	21.8	0.122	508	0.0428	–	–	–	–	–	–	–	–	–	–
Cc1ccc(-c2cc(C)c(Oc3cc(N)nc(Nc4ccc(C#N)cc4)n3)c(C)c2)cc1	10	0.069	249	0.0401	–	–	–	–	–	–	–	–	–	–
Cc1cc(-c2cccc(C#N)c2)cc(C)c1Oc1cc(N)nc(Nc2ccc(C#N)cc2)n1	20.2	0.042	2890	0.007	0.088	0.008	0.073	0.046	0.878	–	–	–	–	–
Cc1cc(-c2ccc(Cl)cc2)cc(C)c1Oc1cc(N)nc(Nc2ccc(C#N)cc2)n1	21.5	0.102	628	0.0342	–	–	–	–	–	–	–	–	–	–
Cc1cc(-c2cccc(C#N)c2)ccc1Oc1cc(N)nc(Nc2ccc(C#N)cc2)n1	27.4	0.041	4940	0.0055	0.287	0.105	0.45	0.036	6.55	–	–	–	–	–
Cc1cc(-c2ccc(F)cc2)ccc1Oc1cc(N)nc(Nc2ccc(C#N)cc2)n1	20.1	0.05	2120	0.0095	–	–	–	–	–	–	–	–	–	–
O=C(O)Cc1ccccc1Nc1c(Cl)cccc1Cl [DICLOFENAC]	–	–	–	–	–	–	–	–	–	150	–	–	9.25	0.269
